Experimental data: publication PMC4344389 (Journal of medicinal chemistry, 2015)

Molecular target: T1, ALDH2 (Homo sapiens, UniProt P05091)
T1 sequence (P05091 18-517): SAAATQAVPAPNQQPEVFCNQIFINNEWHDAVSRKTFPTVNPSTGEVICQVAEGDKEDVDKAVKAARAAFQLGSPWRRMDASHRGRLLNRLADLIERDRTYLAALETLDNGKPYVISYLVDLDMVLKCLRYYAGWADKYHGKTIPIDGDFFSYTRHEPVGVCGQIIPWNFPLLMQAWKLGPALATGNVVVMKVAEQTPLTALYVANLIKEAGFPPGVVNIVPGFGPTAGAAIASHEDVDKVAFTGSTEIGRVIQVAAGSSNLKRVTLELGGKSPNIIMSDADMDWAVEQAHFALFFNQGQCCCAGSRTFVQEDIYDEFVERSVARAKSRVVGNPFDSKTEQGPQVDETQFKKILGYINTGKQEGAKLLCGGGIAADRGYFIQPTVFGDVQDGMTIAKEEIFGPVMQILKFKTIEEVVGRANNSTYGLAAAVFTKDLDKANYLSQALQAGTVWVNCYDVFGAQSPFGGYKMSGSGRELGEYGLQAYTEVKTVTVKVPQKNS
Experiment: Aldehyde dehydrogenase activity assay, propionaldehyde oxidation
Type: biochemical
Details: 20 µM compound

Compound: CC(C)CCn1c(CN2CCN(C(=O)c3ccco3)CC2)nc2c1c(=O)n(C)c(=O)n2C [CM026]
- effect on ALDH2: no effect
